Experimental data as given in a melting point compilation (Tetko et al.; mined from patent text by program, amines drawn as free bases though some values may be those of a salt).

SMILES	melting point
C=CCN(CC=C)c1nc(N)n2oc(=O)nc2n1	211 to 213 °C
CC=Cc1cccc2c(=O)c(C)c(NC(=O)OC(C)(C)C)oc12	200 to 203 °C
COC(=O)c1nc2cc(OC)ccc2c(O)c1C(=O)OC	202 to 204 °C
Nc1ccc(-c2ncon2)cc1	97 to 100 °C
CCOC(C)Oc1cnc(C(C)C)nc1O (stereo unspecified)	70 °C
CN1CCCC1=NC(=O)Nc1cc(Cl)cc(Cl)c1	157 to 159 °C
CCc1cc(Oc2cccnc2)c(S(C)(=O)=O)cc1C(=O)N=C(N)N	219 to 223 °C
N#Cc1ccc(NS(=O)(=O)c2ccc([N+](=O)[O-])cc2[N+](=O)[O-])cc1	186 to 187 °C
NS(=O)(=O)c1cccc(C2(O)CCC2)c1	155 to 157 °C
Brc1ccc(Cc2cc(Br)c(Cc3ccc(Br)cc3)cc2Br)cc1	161 to 167 °C
COC(=O)CCn1c(=O)n2n(c1=O)C(C(=O)OC)C=CC2C(=O)OC (stereo unspecified)	139 to 141 °C
CC[Si](CC)(CC)c1cccc(-c2ccccc2)c1O	44 to 46 °C
CC[C@@H](c1ccccc1)N(Cc1ccc(C(=O)O)c(F)c1)S(=O)(=O)c1ccc(Cl)cc1	95 to 97 °C
CC1Cc2nc(-c3ccccc3)[nH]c(=O)c2CC1S(=O)(=O)c1ccccc1 (stereo unspecified)	247 °C
COC(=O)c1cc(OC)c(Cl)c(C)c1Cl	74 °C
O=C1C=C(O)CC(c2ccc3c(c2)CCC3)C1 (stereo unspecified)	198 °C
CCC(=O)C1=C(O)CC(c2cccc(Oc3ccc(S(C)(=O)=O)cc3)c2)CC1=O (stereo unspecified)	136 to 138 °C
Cc1nnc2cccc(-c3ccccn3)n12	168 to 170 °C
CC1(O)CC(=O)OC(C=Cc2cccc(OCc3ccccc3)c2)C1 (stereo unspecified)	122 to 124 °C
O=C(O)c1cccc2cc3ccc(Cl)cc3c(C(=O)O)c12	325 to 327 °C
CC(=O)Nc1cc2c(s1)CCCN(CCCCN1CCN(c3ncccn3)CC1)C2=O	158 to 161 °C

SMILES	melting point
CCN1C[C@@H](C(=O)OC(C)(C)C)NC1=O	86 to 87 °C
CCC(O)CCCOc1ccccc1Oc1ccccc1OCCCC(O)CC (stereo unspecified)	119 °C
O=C(NO)C(CCN1C(=O)c2ccccc2C1=O)NS(=O)(=O)c1ccc(-c2ccc(Cl)cc2)cc1 (stereo unspecified)	184 to 186 °C
N#Cc1cc2c(cc1F)S(=O)(=O)NCN2C1CC1	208 to 210 °C
OCCn1ccccc1=S	95 to 97 °C
Cc1ccc(N)cc1Nc1nccc(-c2cncnc2)n1	164 to 167 °C
CCNC(=O)n1nc(Oc2c(Cl)cc(C(F)(F)F)cc2[N+](=O)[O-])cc1C	98 to 99 °C
O=C1CCC(N2Cc3cc(CNC(=O)Nc4ccc(Br)cc4)ccc3C2=O)C(=O)N1 (stereo unspecified)	278 to 280 °C
O=C1CCC(=O)N1Sc1ccccc1	110 to 112 °C
Cc1cn(C)c(C(=O)O)c1-c1ccccc1[N+](=O)[O-]	205 °C
CCOC(=O)c1cnn2ccc3c(c12)CCO3	138 to 139 °C
N#Cc1cc([N+](=O)[O-])ccc1Oc1ccc(C(=O)c2ccccc2)cc1	180 °C
CC[C@]12CC[C@@H]3c4ccc(O)cc4CC[C@H]3[C@@H]1C=CC2=O	230 °C
O=C1c2ccccc2C(=O)N1CC#CC1=CCN=C(c2ccccc2F)c2cc(Cl)ccc21	164 to 165 °C
Cc1ccc(-c2ccc3c(c2)C=C(C(=O)Nc2ccc(CNC(CO)CO)cc2)CC3)cc1	189 to 193 °C
CSC(=N)Nc1c(C)cccc1Cl	183 to 184 °C
CNc1nc(-c2cc(F)cc(F)c2)nc2nc(-c3ccco3)nn12	231 to 234 °C
CNC(=O)[C@@H](C[C@H](O)[C@H](CC1CCCCC1)NC(=O)OC(C)(C)C)C1(O)CCCCC1	175 to 177 °C
OCC1OC(n2cnc3c(NCC4Cc5cccc6cccc4c56)ncnc32)C(O)C1O (stereo unspecified)	173 to 175 °C
COc1cc(C)c2c(Cl)c(OC)cc([N+](=O)[O-])c2n1	199 to 200 °C
